Key:
[1] = molecular target: T1, Sodium/hydrogen exchanger 3 (Homo sapiens, UniProt P48764); experiment: Inhibition of human NHE3 expressed in LAP1 cell assessed as intracellular pH recovery measured for 2 mins by CECF-AM dye based FLIPR assay
T1 sequence (P48764 whole entry): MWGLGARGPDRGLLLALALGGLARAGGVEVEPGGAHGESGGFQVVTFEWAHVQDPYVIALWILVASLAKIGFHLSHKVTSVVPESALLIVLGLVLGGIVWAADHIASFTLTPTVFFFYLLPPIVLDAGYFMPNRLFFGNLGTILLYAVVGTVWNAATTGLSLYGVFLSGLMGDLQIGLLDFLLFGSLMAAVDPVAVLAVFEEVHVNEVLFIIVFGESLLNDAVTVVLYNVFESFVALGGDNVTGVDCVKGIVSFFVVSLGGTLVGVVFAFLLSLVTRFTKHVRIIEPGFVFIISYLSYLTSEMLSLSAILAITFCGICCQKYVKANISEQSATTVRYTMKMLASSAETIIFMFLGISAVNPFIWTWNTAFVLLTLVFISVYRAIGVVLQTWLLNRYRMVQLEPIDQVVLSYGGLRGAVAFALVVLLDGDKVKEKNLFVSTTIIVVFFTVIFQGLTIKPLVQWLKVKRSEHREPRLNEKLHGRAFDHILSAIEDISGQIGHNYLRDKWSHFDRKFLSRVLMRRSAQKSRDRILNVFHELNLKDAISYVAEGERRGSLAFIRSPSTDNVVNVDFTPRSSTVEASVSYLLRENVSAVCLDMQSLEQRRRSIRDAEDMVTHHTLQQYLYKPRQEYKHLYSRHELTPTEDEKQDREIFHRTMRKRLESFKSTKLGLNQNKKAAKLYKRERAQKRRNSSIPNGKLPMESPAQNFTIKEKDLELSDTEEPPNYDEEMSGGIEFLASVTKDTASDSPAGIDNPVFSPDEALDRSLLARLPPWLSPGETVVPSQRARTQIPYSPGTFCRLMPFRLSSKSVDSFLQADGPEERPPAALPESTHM

[2] = Permeability in human Caco2/TC7 cells assessed as total flux at 20 uM incubated for 2 hrs by LC-MS/MS method; assay type: ADME, cell-based; conditions: Caco-2, read-out: permeability
[3] = molecular target: Cytochrome P450 2D6 (Homo sapiens, UniProt P10635)
Chain of Cytochrome P450 2D6 (P10635 whole entry): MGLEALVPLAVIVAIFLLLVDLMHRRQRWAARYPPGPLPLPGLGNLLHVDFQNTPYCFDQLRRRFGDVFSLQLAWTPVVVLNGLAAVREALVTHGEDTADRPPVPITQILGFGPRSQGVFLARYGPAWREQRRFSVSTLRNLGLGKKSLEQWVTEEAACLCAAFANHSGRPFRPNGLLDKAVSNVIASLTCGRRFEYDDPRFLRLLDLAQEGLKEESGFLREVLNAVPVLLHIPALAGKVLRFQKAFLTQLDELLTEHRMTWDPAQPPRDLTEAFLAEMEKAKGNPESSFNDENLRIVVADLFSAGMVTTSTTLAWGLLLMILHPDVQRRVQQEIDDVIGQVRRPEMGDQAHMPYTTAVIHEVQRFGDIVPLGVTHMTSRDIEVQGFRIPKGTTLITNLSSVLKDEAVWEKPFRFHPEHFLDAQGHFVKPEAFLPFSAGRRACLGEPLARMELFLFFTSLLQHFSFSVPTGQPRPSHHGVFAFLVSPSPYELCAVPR
Description: Inhibition of CYP2D6 in pooled human hepatic microsomes using dextromethorphan substrate in presence of NADPH

| IC50 [1] [nM] | Papp at 2 h, 20 µM [2] [×10⁻⁶ cm/s] | IC50 [3] [nM] | SMILES |
| --- | --- | --- | --- |
| 30 |  |  | CS(=O)(=O)c1ccc(O[C@H]2c3cc(Cl)cc(Cl)c3C[C@@H]2N2CCCN(CCO)CC2)cc1 |
| 48 |  |  | CN(C)CCCN(C)[C@H]1Cc2c(Cl)cc(Cl)cc2[C@@H]1Oc1ccc(S(C)(=O)=O)cc1 |
| 64 | 11 | < 300 | COCCN1CCCN([C@H]2Cc3c(Cl)cc(Cl)cc3[C@@H]2Oc2ccc(S(C)(=O)=O)cc2)CC1 |
| 883 |  |  | CS(=O)(=O)c1ccc(O[C@H]2c3cc(Cl)cc(Cl)c3C[C@@H]2N2CC[C@H](F)C2)cc1 |
| 438 | 9.1 | 640 | CC(=O)Nc1cccc(O[C@H]2c3ccccc3C[C@@H]2N2CCCC2)c1 |
| 123 | 13.2 | 400 | NS(=O)(=O)c1ccc(O[C@H]2c3ccccc3C[C@@H]2N2CCCC2)c(Cl)c1Cl |
| 4040 |  |  | CN1CCN([C@H]2Cc3c(Cl)cc(Cl)cc3[C@@H]2Oc2ccc(S(C)(=O)=O)cc2)CC1 |
| 2440 |  |  | O=C1OCc2cc(O[C@H]3c4ccccc4C[C@@H]3N3CCCC3)ccc21 |
| 1530 |  |  | O=S1(=O)CCCN1c1cccc(O[C@H]2c3ccccc3C[C@@H]2N2CCCC2)c1 |
| 272 |  |  | Cc1nnc(C2CC2)n1-c1ccc(O[C@H]2c3ccccc3C[C@@H]2N2CCCC2)cc1 |
| 650 | 0.08 | < 300 | N[C@@H]1CCCN([C@H]2Cc3ccccc3[C@@H]2Oc2ccc(S(N)(=O)=O)c(Cl)c2Cl)C1 |
| 2 |  |  | CS(=O)(=O)c1ccc(O[C@H]2c3cc(Cl)cc(Cl)c3C[C@@H]2N2CCCNCC2)c(Cl)c1 |
| 4530 |  |  | CC(=O)Nc1cc(O[C@H]2c3ccccc3C[C@@H]2N2CCCC2)ccn1 |
| 197 | 9.8 | < 300 | Cn1ccn(-c2cccc(O[C@H]3c4ccccc4C[C@@H]3N3CCCC3)c2)c1=O |
| 500 |  |  | NS(=O)(=O)c1ccc(O[C@H]2c3ccccc3C[C@@H]2N2CCCC2)cc1 |
| 93 | 6.4 | < 300 | CN1CCCN([C@H]2Cc3c(Cl)cc(Cl)cc3[C@@H]2Oc2ccc(S(C)(=O)=O)cc2)CC1 |
| 9520 |  |  | c1ccc2c(c1)C[C@H](N1CCCC1)[C@H]2Oc1cccc2cccnc12 |
| 166 |  |  | CS(=O)(=O)c1ccc(O[C@H]2c3cc(Cl)cc(Cl)c3C[C@@H]2N2CC[C@@H](F)C2)cc1 |
| 94 | 16.2 | 2500 | Cc1nnc(C)n1-c1ccc(O[C@H]2c3cc(Cl)ccc3C[C@@H]2N2CCCC2)c(Cl)c1 |
| 411 |  |  | Cc1noc(C)c1-c1ccc(O[C@H]2c3ccccc3C[C@@H]2N2CCCC2)cc1 |

| IC50 [1] [nM] | Papp at 2 h, 20 µM [2] [×10⁻⁶ cm/s] | IC50 [3] [nM] | SMILES |
| --- | --- | --- | --- |
| 168 |  |  | CS(=O)(=O)c1ccc(O[C@H]2c3cc(Cl)cc(F)c3C[C@@H]2N2CCNCC2)cc1 (racemic) |
| 3490 |  |  | CS(=O)(=O)c1ccc(O[C@H]2c3cc(F)ccc3C[C@@H]2N2CCNCC2)cc1 (racemic) |
| 955 |  |  | O=C1OCCN1c1cccc(O[C@H]2c3ccccc3C[C@@H]2N2CCCC2)c1 |
| 28 | 0.07 | 900 | CS(=O)(=O)c1ccc(OC2c3cc(Cl)cc(Cl)c3CC2N2C[C@H]3CNC[C@H]3C2)cc1 (single isomer, unassigned) |
| 170 |  |  | Cc1c(O[C@H]2c3ccccc3C[C@@H]2N2CCCC2)ccc(-n2c(C)nnc2C)c1C |
| 540 | 19.2 |  | CS(=O)(=O)c1ccc(O[C@H]2c3ccccc3C[C@@H]2N2CCCC2)c(Cl)c1Cl |
| 330 | 0.04 | 8600 | NC(=O)Nc1cccc(O[C@H]2c3ccccc3C[C@@H]2N2CCC[C@@H](N)C2)c1 |
| 1640 |  |  | CS(=O)(=O)c1ccc(O[C@H]2c3cc(Cl)cc(Cl)c3C[C@@H]2N2CC(O)C2)cc1 |
| 23 | 1.1 | < 300 | N[C@@H]1CCCN([C@H]2Cc3c(Cl)cc(Cl)cc3[C@@H]2Oc2ccc(-n3ccnc3)cc2)C1 |
| 440 | 0.03 | 5100 | CC(=O)Nc1cccc(O[C@H]2c3ccccc3C[C@@H]2N2CCC[C@@H](N)C2)c1 |
| 123 |  |  | CS(=O)(=O)c1ccc(O[C@H]2c3cc(F)cc(Cl)c3C[C@@H]2N2CCNCC2)cc1 (racemic) |
| 540 |  |  | CS(=O)(=O)c1ccc(O[C@H]2c3cc(Cl)ccc3C[C@@H]2N2CCNCC2)cc1 (racemic) |
| 43 |  |  | CS(=O)(=O)c1ccc(O[C@H]2c3c(ccc(Cl)c3Cl)C[C@@H]2N2CCCNCC2)cc1 |
| 78 | 6.7 | 730 | Cc1nnc(C)n1-c1ccc(O[C@H]2c3ccccc3C[C@@H]2N2CCCC2)c(Cl)c1 |
| 384 |  |  | CS(=O)(=O)c1ccc(O[C@H]2c3cc(Cl)cc(Cl)c3C[C@@H]2N2CC[C@H](O)C2)cc1 |
| 281 | 9.8 | 3800 | O=c1[nH]ccn1-c1cccc(O[C@H]2c3ccccc3C[C@@H]2N2CCCC2)c1 |
| 6060 |  |  | CS(=O)(=O)c1ccc(O[C@H]2c3cc(Cl)c(Cl)cc3C[C@@H]2N2CCCNCC2)cc1 (racemic) |
| 22 | 3 | < 300 | CS(=O)(=O)c1ccc(O[C@H]2c3cc(Cl)cc(Cl)c3C[C@@H]2N2CCNCC2)cc1 |
| 345 |  |  | Cc1nnc(C)n1-c1ccc(O[C@H]2c3ccccc3C[C@@H]2N2CCCC2)cc1 |
| 2960 |  |  | O=C1CCC(=O)N1c1cccc(O[C@H]2c3ccccc3C[C@@H]2N2CCCC2)c1 |

| IC50 [1] [nM] | Papp at 2 h, 20 µM [2] [×10⁻⁶ cm/s] | IC50 [3] [nM] | SMILES |
| --- | --- | --- | --- |
| 20 | 5.1 |  | C[C@@H]1CN([C@H]2Cc3c(Cl)cc(Cl)cc3[C@@H]2Oc2ccc(S(C)(=O)=O)cc2)CCN1 |
| 4 |  |  | CS(=O)(=O)c1ccc(O[C@H]2c3cc(Cl)cc(Cl)c3C[C@@H]2N2CCC[C@@H](N)C2)cc1 |
| 241 | 6 | < 300 | CN1C[C@@H]2CN([C@H]3Cc4c(Cl)cc(Cl)cc4[C@@H]3Oc3ccc(S(C)(=O)=O)cc3)C[C@@H]2C1 |
| 30 | 2.4 | < 300 | N[C@@H]1CCCN([C@H]2Cc3c(Cl)cc(Cl)cc3[C@@H]2Oc2ccc(-n3cncn3)cc2)C1 |
| 118 |  |  | Cc1nnc(C)n1-c1ccc(O[C@H]2c3ccccc3C[C@@H]2N2CCCC2)c(C(F)(F)F)c1 |
| 11 |  |  | CS(=O)(=O)c1ccc(O[C@H]2c3cc(Cl)cc(Cl)c3C[C@@H]2N2CCC3(CCNC3)C2)cc1 (stereo partly drawn) |
| 90 | 0.5 | 9500 | Cc1nnc(C)n1-c1ccc(O[C@H]2c3cc(Cl)ccc3C[C@@H]2N2CC[C@@H](O)C2)c(Cl)c1 |
| 737 | 28.3 | < 300 | CS(=O)(=O)c1ccc(O[C@H]2c3cc(Cl)cc(F)c3C[C@@H]2N2CCCC2)cc1 (racemic) |
| 4500 |  |  | N#Cc1ccc(O[C@H]2c3ccccc3C[C@@H]2N2CCCC2)cc1 |
| 0.2 | 0.6 | 1500 | N[C@@H]1CCCN([C@H]2Cc3c(Cl)cc(Cl)cc3[C@@H]2Oc2ccc(S(N)(=O)=O)c(Cl)c2Cl)C1 |
| 6 | 1.6 | < 300 | CS(=O)(=O)c1ccc(O[C@H]2c3cc(Cl)cc(Cl)c3C[C@@H]2N2CCCNCC2)cc1 |
| 572 | 21.5 | < 300 | CS(=O)(=O)c1ccc(O[C@H]2c3ccccc3C[C@@H]2N2CCCC2)cc1 |
| 6680 |  |  | CS(=O)(=O)c1ccc(O[C@H]2c3ccccc3C[C@@H]2N2CCNCC2)cc1 |
| 56 | 10.5 | < 300 | CS(=O)(=O)c1ccc(O[C@H]2c3cc(Cl)cc(Cl)c3C[C@@H]2N2CCC[C@@H](NCCF)C2)cc1 |
| 135 |  |  | CS(=O)(=O)c1ccc(O[C@H]2c3c(Cl)cc(Cl)cc3C[C@@H]2N2CCNCC2)cc1 |
| 1710 |  |  | c1ccc2c(c1)C[C@H](N1CCCC1)[C@H]2Oc1ccc(-c2nccs2)cc1 |
| 20 | 8 | < 300 | CN(C)CCN(C)[C@H]1Cc2c(Cl)cc(Cl)cc2[C@@H]1Oc1ccc(S(C)(=O)=O)cc1 |
| 588 | 28.6 | 2400 | CS(=O)(=O)c1ccc(O[C@H]2c3cc(Cl)cc(Cl)c3C[C@@H]2N2CC[C@@H](O)C2)cc1 |
| 4 |  |  | CS(=O)(=O)c1ccc(O[C@H]2c3cc(Cl)cc(Cl)c3C[C@@H]2N2CCC[C@@H](NCCO)C2)cc1 |
| 2770 |  |  | CC(=O)Nc1ccc(O[C@H]2c3ccccc3C[C@@H]2N2CCCC2)cc1 |

| SMILES | IC50 [1] [nM] | Papp at 2 h, 20 µM [2] [×10⁻⁶ cm/s] | IC50 [3] [nM] |
| --- | --- | --- | --- |
| Cc1nncn1-c1ccc(O[C@H]2c3ccccc3C[C@@H]2N2CCCC2)cc1 | 640 |  |  |
| O=C1CCCN1c1cccc(O[C@H]2c3ccccc3C[C@@H]2N2CCCC2)c1 | 3520 |  |  |
| CCN(CC)C(=O)c1ccc(O[C@H]2c3ccccc3C[C@@H]2N2CCCC2)cc1 | 2070 |  |  |

Source: ChEMBL document CHEMBL3860060, “Discovery and Optimization of 1-Phenoxy-2-aminoindanes as Potent, Selective, and Orally Bioavailable Inhibitors of the Na+/H+ Exchanger Type 3 (NHE3)” (J Med Chem, 2016)
